Tests used:
mouse MLKL (full length) = mouse MLKL (full length) (Mus musculus (Mouse), UniProt Q9D2Y4); assay: KINOMEscan binding assay, mouse MLKL (full length); conditions: equilibrium dissociation constant
Summary of the method: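 Binding constants were derived by fitting qPCR-quantified bead-retained kinase against compound concentration to the Hill equation, slope set at −1. Compound series were 3-fold over 11 points with 1% DMSO; most top concentrations were 30,000 nM. Kinases were T7-phage-tagged or HEK-293-produced with DNA tags.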

[1] = system: Immortalised Mouse Dermal Fibroblasts (MDFs); assay: Inhibition of TSI induced necroptosis in mouse dermal fibroblasts (CellTitre-Glo); conditions: Mus musculus, Fibroblast, 3 h, MDF cells, TSI cocktail (TNF, Smac mimetic, IDN-6556), read-out: Inhibition of TSI-induced necroptosis (IC50 cell-based assay) in MDF
Summary of the method: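 Immortalised MDFs (2200 cells/well, DMEM + 7.4% FBS) pretreated 30 min with compound (36 μM top, 1:3, 10 points, 0.3% DMSO), then 3 h with TNF 100 ng/ml, Smac mimetic 500 nM and IDN-6556 10 μM at 37 °C. Viability by CellTiter-Glo luminescence; IC50 from 4-parameter logistic fit.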

Sequence of mouse MLKL (full length) (Q9D2Y4 whole entry): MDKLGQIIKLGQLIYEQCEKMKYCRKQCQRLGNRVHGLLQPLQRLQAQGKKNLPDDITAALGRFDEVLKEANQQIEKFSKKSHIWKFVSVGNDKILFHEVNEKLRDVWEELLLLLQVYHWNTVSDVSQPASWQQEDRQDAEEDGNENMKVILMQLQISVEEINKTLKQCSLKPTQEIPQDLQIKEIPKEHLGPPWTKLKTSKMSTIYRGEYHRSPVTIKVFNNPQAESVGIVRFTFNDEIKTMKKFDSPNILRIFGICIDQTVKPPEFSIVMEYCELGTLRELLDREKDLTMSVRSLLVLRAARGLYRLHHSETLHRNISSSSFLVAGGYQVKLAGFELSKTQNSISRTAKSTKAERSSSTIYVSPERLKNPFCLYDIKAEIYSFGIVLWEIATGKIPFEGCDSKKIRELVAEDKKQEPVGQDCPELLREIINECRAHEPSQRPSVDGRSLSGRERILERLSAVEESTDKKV

| Compound | Kd (mouse MLKL (full length)) | IC50 [1] |
| --- | --- | --- |
| Cn1nc(-c2ccc(NS(=O)(=O)C(F)F)c(OCc3ccc(F)cc3)c2)c2c(N)ncc(-c3cnn(C4CCOCC4)c3)c21 [Compound 13, N-(4-(4-amino-1-methyl-7-(1-(tetrahydro-2H-pyran-4-yl)-1H-pyrazol-4-yl)-1H-pyrazolo[4,3-c]pyridin-3-yl)-2-((4-fluorobenzyl)oxy)phenyl)-1,1-difluoromethanesulfonamide] | < 1 nM | 1000 to 10000 nM |
| C[C@H](Oc1cc(-c2nn(C)c3c(-c4cnn(C5CCOCC5)c4)cnc(N)c23)ccc1NS(=O)(=O)C(F)F)c1ccc(F)cc1 [Compound 19, (S)-N-(4-(4-amino-1-methyl-7-(1-(tetrahydro-2H-pyran-4-yl)-1H-pyrazol-4-yl)-1H-pyrazolo[4,3-c]pyridin-3-yl)-2-(1-(4-fluorophenyl)ethoxy)phenyl)-1,1-difluoromethanesulfonamide] | < 1 nM | 100 to 1000 nM |
| C[C@H](Oc1cc(-c2nn(C)c3c(-c4cnn(CCC(F)(F)F)c4)cnc(N)c23)ccc1NS(=O)(=O)C(F)F)c1ccc(F)cc1 [Compound 131, (S)-N-(4-(4-amino-1-methyl-7-(1-(3,3,3-trifluoropropyl)-1H-pyrazol-4-yl)-1H-pyrazolo[4,3-c]pyridin-3-yl)-2-(1-(4-fluorophenyl)ethoxy)phenyl)-1,1-difluoromethanesulfonamide] |  | 1000 to 10000 nM |
| Cn1nc(-c2ccc(NS(=O)(=O)C(F)F)c(OCc3ccc(Cl)c(F)c3)c2)c2c(N)ncc(-c3cnn(C4CCOCC4)c3)c21 [Compound 132, N-(4-(4-amino-1-methyl-7-(1-(tetrahydro-2H-pyran-4-yl)-1H-pyrazol-4-yl)-1H-pyrazolo[4,3-c]pyridin-3-yl)-2-((4-chloro-3-fluorobenzyl)oxy)phenyl)-1,1-difluoromethanesulfonamide] |  | 1000 to 10000 nM |
| COCC(Oc1cc(-c2nn(C)c3c(-c4cnn(C5CCN(C)CC5)c4)cnc(N)c23)ccc1NS(=O)(=O)C(F)F)c1ccc(F)cc1 (stereo not drawn) [Compound 139, N-(4-(4-amino-1-methyl-7-(1-(1-methylpiperidin-4-yl)-1H-pyrazol-4-yl)-1H-pyrazolo[4,3-c]pyridin-3-yl)-2-(1-(4-fluorophenyl)-2-methoxyethoxy)phenyl)-1,1-difluoromethanesulfonamide] |  | 1000 to 10000 nM |
| CC(n1cc(-c2cnc(N)c3c(-c4ccc(NS(=O)(=O)C(F)F)c(O[C@@H](C)c5ccc(F)cc5)c4)nn(C)c23)cn1)C(F)(F)F (stereo partly drawn) [Compound 142, N-(4-(4-amino-1-methyl-7-(1-(1,1,1-trifluoropropan-2-yl)-1H-pyrazol-4-yl)-1H-pyrazolo[4,3-c]pyridin-3-yl)-2-((S)-1-(4-fluorophenyl)ethoxy)phenyl)-1,1-difluoromethanesulfonamide] |  | 1000 to 10000 nM |
| C[C@H](Oc1cc(-c2nn(C)c3c(-c4cnn(C5CCN(C)C6(CC6)C5)c4)cnc(N)c23)ccc1NS(=O)(=O)C(F)F)c1ccc(F)cc1 (stereo partly drawn) [Compound 145, N-(4-(4-amino-1-methyl-7-(1-(4-methyl-4-azaspiro[2.5]octan-7-yl)-1H-pyrazol-4-yl)-1H-pyrazolo[4,3-c]pyridin-3-yl)-2-((S)-1-(4-fluorophenyl)ethoxy)phenyl)-1,1-difluoromethanesulfonamide] |  | < 100 nM |
| C[C@H](Oc1cc(-c2nn(C)c3c(-c4cnn(C5CCC(F)(F)CC5)c4)cnc(N)c23)ccc1NS(=O)(=O)C(F)F)c1ccc(F)cc1 [Compound 146, (S)-N-(4-(4-amino-7-(1-(4,4-difluorocyclohexyl)-1H-pyrazol-4-yl)-1-methyl-1H-pyrazolo[4,3-c]pyridin-3-yl)-2-(1-(4-fluorophenyl)ethoxy)phenyl)-1,1-difluoromethanesulfonamide] |  | 1000 to 10000 nM |
| CC1C(n2cc(-c3cnc(N)c4c(-c5ccc(NS(=O)(=O)C(F)F)c(O[C@@H](C)c6ccc(F)cc6)c5)nn(C)c34)cn2)CN1C (stereo partly drawn) [Compound 147, N-(4-(4-amino-7-(1-(1,2-dimethylazetidin-3-yl)-1H-pyrazol-4-yl)-1-methyl-1H-pyrazolo[4,3-c]pyridin-3-yl)-2-((S)-1-(4-fluorophenyl)ethoxy)phenyl)-1,1-difluoromethanesulfonamide] |  | 100 to 1000 nM |
| C[C@H](Oc1cc(-c2nn(C)c3c(-c4cnn(C5CCN(C)C(C(F)(F)F)C5)c4)cnc(N)c23)ccc1NS(=O)(=O)C(F)F)c1ccc(F)cc1 (stereo partly drawn) [Compound 148, N-(4-(4-amino-1-methyl-7-(1-(1-methyl-2-(trifluoromethyl)piperidin-4-yl)-1H-pyrazol-4-yl)-1H-pyrazolo[4,3-c]pyridin-3-yl)-2-((S)-1-(4-fluorophenyl)ethoxy)phenyl)-1,1-difluoromethanesulfonamide] |  | 100 to 1000 nM |
| C[C@H](Oc1cc(-c2nn(C)c3c(-c4cnn(C5CC6CCC(C5)N6CC(F)(F)F)c4)cnc(N)c23)ccc1NS(=O)(=O)C(F)F)c1ccc(F)cc1 (stereo partly drawn) [Compound 153, N-(4-(4-amino-1-methyl-7-(1-(8-(2,2,2-trifluoroethyl)-8-azabicyclo[3.2.1]octan-3-yl)-1H-pyrazol-4-yl)-1H-pyrazolo[4,3-c]pyridin-3-yl)-2-((S)-1-(4-fluorophenyl)ethoxy)phenyl)-1,1-difluoromethanesulfonamide] |  | 100 to 1000 nM |
| Cc1c(-c2cnc(N)c3c(-c4ccc(NS(=O)(=O)C(F)F)c(O[C@@H](C)c5ccc(F)cc5)c4)nn(C)c23)cnn1C1CCN(C)C(C)(C)C1 (stereo partly drawn) [Compound 157, N-(4-(4-amino-1-methyl-7-(5-methyl-1-(1,2,2-trimethylpiperidin-4-yl)-1H-pyrazol-4-yl)-1H-pyrazolo[4,3-c]pyridin-3-yl)-2-((S)-1-(4-fluorophenyl)ethoxy)phenyl)-1,1-difluoromethanesulfonamide] |  | 1000 to 10000 nM |
| C[C@H](Oc1cc(-c2nn(C)c3c(-c4cnn(C5CCN(C)C(C)(C)C5)c4)cnc(N)c23)ccc1NS(=O)(=O)C(F)F)c1ccc(Cl)cc1 (stereo partly drawn) [Compound 159, N-(4-(4-amino-1-methyl-7-(1-(1,2,2-trimethylpiperidin-4-yl)-1H-pyrazol-4-yl)-1H-pyrazolo[4,3-c]pyridin-3-yl)-2-((S)-1-(4-chlorophenyl)ethoxy)phenyl)-1,1-difluoromethanesulfonamide] |  | < 100 nM |
| C[C@H](Oc1cc(-c2nn(C)c3c(-c4cnn(C5CC(C)(C)N(C)C(C)(C)C5)c4)cnc(N)c23)ccc1NS(=O)(=O)C(F)F)c1ccc(F)cc1 [Compound 162, (S)-N-(4-(4-amino-1-methyl-7-(1-(1,2,2,6,6-pentamethylpiperidin-4-yl)-1H-pyrazol-4-yl)-1H-pyrazolo[4,3-c]pyridin-3-yl)-2-(1-(4-fluorophenyl)ethoxy)phenyl)-1,1-difluoromethanesulfonamide] |  | < 100 nM |
| C[C@H](Oc1cc(-c2nn(C)c3c(-c4cnn(C5C[C@H]6CNC[C@H]6C5)c4)cnc(N)c23)ccc1NS(=O)(=O)C(F)F)c1ccc(F)cc1 (stereo partly drawn) [Compound 163, N-(4-(4-amino-1-methyl-7-(1-((3aR,6aS)-octahydrocyclopenta[c]pyrrol-5-yl)-1H-pyrazol-4-yl)-1H-pyrazolo[4,3-c]pyridin-3-yl)-2-((S)-1-(4-fluorophenyl)ethoxy)phenyl)-1,1-difluoromethanesulfonamide] |  | 1000 to 10000 nM |
| C[C@H](Oc1cc(-c2nn(C)c3c(-c4cnn(C5C[C@@H]6CN(C)C[C@@H]6C5)c4)cnc(N)c23)ccc1NS(=O)(=O)C(F)F)c1ccc(F)cc1 (stereo partly drawn) [Compound 164, N-(4-(4-amino-1-methyl-7-(1-((3aR,6aS)-2-methyloctahydrocyclopenta[c]pyrrol-5-yl)-1H-pyrazol-4-yl)-1H-pyrazolo[4,3-c]pyridin-3-yl)-2-((S)-1-(4-fluorophenyl)ethoxy)phenyl)-1,1-difluoromethanesulfonamide] |  | < 100 nM |
| C[C@H](Oc1cc(-c2nn(C)c3c(-c4ccc5c(cnn5C)c4)cnc(N)c23)ccc1NS(=O)(=O)C(F)F)c1ccc(F)cc1 [Compound 166, (S)-N-(4-(4-amino-1-methyl-7-(1-methyl-1H-indazol-5-yl)-1H-pyrazolo[4,3-c]pyridin-3-yl)-2-(1-(4-fluorophenyl)ethoxy)phenyl)-1,1-difluoromethanesulfonamide] |  | 1000 to 10000 nM |
| C[C@H](Oc1cc(-c2nn(C)c3c(-c4cnn(C5CCN(CC(F)(F)F)C(C)(C)C5)c4)cnc(N)c23)ccc1NS(=O)(=O)C(F)F)c1ccc(F)cc1 (stereo partly drawn) [Compound 167, N-(4-(4-amino-7-(1-(2,2-dimethyl-1-(2,2,2-trifluoroethyl)piperidin-4-yl)-1H-pyrazol-4-yl)-1-methyl-1H-pyrazolo[4,3-c]pyridin-3-yl)-2-((S)-1-(4-fluorophenyl)ethoxy)phenyl)-1,1-difluoromethanesulfonamide] |  | < 100 nM |
| CC1CN(C)CC(C)C1n1cc(-c2cnc(N)c3c(-c4ccc(NS(=O)(=O)C(F)F)c(O[C@@H](C)c5ccc(F)cc5)c4)nn(C)c23)cn1 (stereo partly drawn) [Compound 172, N-(4-{4-amino-1-methyl-7-[1-(1,3,5-trimethylpiperidin-4-yl)-1H-pyrazol-4-yl]-1H-pyrazolo[4,3-c]pyridin-3-yl}-2-[(1S)-1-(4-fluorophenyl)ethoxy]phenyl)-1,1-difluoromethanesulfonamide] |  | < 100 nM |
